Holding throughout (type): cell-based
The test system of test [1] is Bacillus cereus. The test is described as follows: Keeping test, potato salad contaminated with Bacillus cereus, 30° C. As to conditions: time until Bacillus cereus 10^6 /g or more. On the procedure: (§1) Potato salad was prepared according to the following recipe.
(§2) Mayonnaise in the proportion of 10% by weight against the above materials was combined with various chemicals of prescribed concentrations listed in Table 5 and these were evenly mixed with the above food materials. Mixed specimens were prepared by inoculating Bacillus cereus in the form of a spore suspension in such a way as to make the bacterial number n×10^2 per gram on the final specimen.
The same Bacillus cereus as in Example 1 was employed for this example.
(§3) The potato salad thus prepared was packed into plastic containers and left standing at 30° C. The bacterial number of total viable active bacteria and that of Bacillus cereus were measured with respect to the changes with time by the same method as in Example 1.
(§4) The effective keeping time and the figures in the upper and the lower spaces for each chemical in the list are used in the same meanings as in Example 4.

The test system of another test is total viable bacteria. Kind of test: Keeping test, cooked rice not contaminated with Bacillus cereus, 30° C. As to conditions: time without smell of putrefaction or change in outward appearance.
Test [2] relates to Bacillus cereus. The test is described as follows: Keeping test, cooked rice contaminated with Bacillus cereus, 30° C. The settings on record: for Effective keeping time: cooked rice contaminated with Bacillus cereus, 30° C., time until Bacillus cereus 10^6 /g or more. On the procedure: Two hundred grams of polished rice was washed in water, and with the addition of 240 ml of water, it was cooked for approximately 15 minutes in an electric rice-cooker which was of the type in public use. The rice cooked was left standing in hot steam for 10 minutes, and then left to cool off at room temperature. On the other hand, a suspension of spores of Bacillus cereus was prepared and added to the cooked rice, which had cooled off, in the proportion of n×10^2 to 1 g final specimen. Specimens were prepared by mixing the rice evenly with addition of the spores.
The cooked rice was put in a plastic case for each 120 g and its temperature was maintained at 30° C., and the number of total viable bacteria and the number of Bacillus cereus were measured periodically using a standard agar culture medium (37° C., 48 hours) and a polymyxin BCW agar culture medium with 5% egg yellow (37° C., 24 hours) for each In parallel with this measurement of the bacterium number, the specimens were examined concerning the outward appearance and the possible smell of putrefaction.
Each of the chemicals shown in Table 4 was dissolved in 20 ml of water to form an aqueous solution of a set concentration.

The next test relates to Bacillus megaterium. The test is described as follows: MIC, agar plate dilution method on standard nutrient agar. The settings on record: Bacillus megaterium spores, 37° C., 24 hours. Here is the method: (§5) The minimum growth inhibiting concentration (MIC) of various antibacterial substances against Bacillus cereus and other general putrefying bacteria were measured by using a standard nutrient agar (made by Difco Corp.) and by introducing the agar plate dilution method.
(§6) On a plain culture medium on which chemicals were placed in a stepwise dilution system the liquid spore suspension (×10^8 /ml) with respect to the strains of the genus of Bacillus and the respective pre-culture mediums (37° C., 24 hours) provided by Brain Heart Infusion Broth with respect to the other strains were smeared.

In a further test the test system is Bacillus coaglans. Described as above. The settings on record: Bacillus coaglans spores, 37° C., 24 hours. Here is the method:
as §5, §6

Test [3] concerns Leuconostoc mesenteroides. The description is as above. As to conditions: 37° C., 24 hours. Here is the method: as §5, §6
In a further test the test system is Lactobacillus casei. The description is as above. The settings on record: 37° C., 24 hours. Here is the method: as §5, §6
A further test concerns Bacillus subtilis. The description is as above. The settings on record: Bacillus subtilis spores, 37° C., 24 hours. On the procedure: as §5, §6
Another test relates to Bacillus licheniformis. The description is as above. As to conditions: Bacillus licheniformis spores, 37° C., 24 hours. On the procedure:
as §5, §6

For another test, the system named is Staphylococcus aureus. The description is as above. As to conditions: 37° C., 24 hours. Here is the method:
as §5, §6

Test [4] deals with Bacillus cereus. Described as above. As to conditions: for minimum growth inhibiting concentration (MIC): Bacillus cereus spores, 37° C., 24 hours, judged with the naked eye. Here is the method:
as §5, §6

For the next test, the system named is Streptococcus faecalis. The description is as above. The settings on record: 37° C., 24 hours. On the procedure: as §5, §6
In test [5] the test system is total viable active bacteria. The test is described as follows: Keeping test, potato salad not contaminated with Bacillus cereus, 30° C. The settings on record: time without smell of putrefaction or change in outward appearance. On the procedure:
as §1, §2, §3, §4

Bounds are passed on as bounds.

Data on two compounds can be found in patent US4954358A, “Multiplication inhibitor for Bacillus cereus” (priority 1986, dated 1990).

Regarding `NCC(=O)O` [Glycine], the Effective keeping time in the test with Bacillus cereus [1] (chemical 1% by weight) came out at 12.0 h; in the test on total viable bacteria (chemical 1% by weight) it was 110.0 h; in the test with Bacillus cereus [2] (chemical 1% by weight) it was 10.1 h; in test [5] (chemical 1% by weight), 36.0 h. Also, the “effectiveness against Bacillus cereus in tests with actual food” value with Bacillus cereus [2] (cooked rice (Example 4), result in words) is “proved effective, though the effect is of no practical value”. In addition, the minimum growth inhibiting concentration (MIC) in the test on Bacillus megaterium amounted to 1%; with Bacillus coaglans it was 1%; in test [3], 4%; in the test with Lactobacillus casei it was 4%; with Bacillus subtilis it was 1%; in the test with Bacillus licheniformis it was 2%. Further, the minimum growth inhibiting concentration (MIC) is 5% in the test on Staphylococcus aureus, > 8% in the test with Bacillus cereus [4] and 4% in the test on Streptococcus faecalis.

Consider `CCCCCCCCCCCC(=O)OCC(O)CO` (stereo not shown) [Lauric acid monoglyceride], for which the Effective keeping time in the test on Bacillus cereus [1] (chemical 0.01% by weight) was 11.5 h; with total viable bacteria (chemical 0.01% by weight), 40.0 h; in the test with Bacillus cereus [2] (chemical 0.01% by weight) it was 8.2 h; in [5] (chemical 0.01% by weight), 22.0 h. In addition, the “minimum growth inhibiting concentration (MIC)” value came out at 0.0025 with Bacillus megaterium (in %); 0.0025 with Bacillus coaglans (in %); 0.01% in test [3]; 0.01% in the test on Lactobacillus casei; 0.0025 in the test with Bacillus subtilis (in %); 0.0025 in the test on Bacillus licheniformis (in %). Further, the minimum growth inhibiting concentration (MIC) in the test on Staphylococcus aureus was 0.01%; in the test with Bacillus cereus [4] (in %), 0.0025; with Streptococcus faecalis, 0.01%. The “growth inhibition effect against Bacillus cereus” value in the test on Bacillus cereus [4] (standard nutrient agar, result in words) is “showed effectiveness”.
